In patent publication US8993604B2, “Treatment and prevention of dengue virus infections” (Siga Technologies, Inc., priority 2009, dated 2015):
Where two headings read alike, the source gives them in different places.

System: Dengue-2 (Strain New Guinea C)
Experiment: Viral yield assay in Vero cells
Format: cell-based
Conditions: Dengue virus, read-out: Activity (anti-dengue 2 viral activity, EC50 class)
Description: Compounds that were active in the primary screen were tested for activity in viral yield assays. […] Vero cells in 12-well plates were infected with dengue-2 virus at a multiplicity of infection (MOI) of 0.1, treated with compound (or DMSO as a control), incubated at 37° C., harvested 48 hours post infection and titered on Vero cells as described above. The EC50 was calculated through ExcelFit. Activities against other serotypes of dengue virus were determined in a similar way.

[1] = Vero cells, MOI 0.1, harvested 48 hours post infection

| Compound | EC50 [1] [µM] | EC50 (Vero, 48 h) [µM] |
| --- | --- | --- |
| COc1ccc(C(=O)Nc2ccc(-c3nc4ccccc4s3)c(O)c2)cc1 [Compound 1, N-(4-Benzothiazol-2-yl-3-hydroxy-phenyl)-4-methoxy-benzamide] | < 1 | – |
| O=C(Nc1ccc(-c2nc3ccccc3s2)cc1)c1ccc2c(c1)OCCO2 [Compound 2, 2,3-Dihydro-benzo[1,4]dioxine-6-carboxylic acid (4-benzothiazol-2-yl-phenyl)-amide] | < 1 | – |
| COc1ccccc1C(=O)Nc1cccc(-c2nc3ccccc3s2)c1 [Compound 4, N-(3-Benzothiazol-2-yl-phenyl)-2-methoxy-benzamide] | < 1 | – |
| COc1ccc(C(=O)Nc2ccc(-c3nc4ccccc4s3)c(Cl)c2)cc1OC [Compound 5, N-(4-Benzothiazol-2-yl-3-chloro-phenyl)-3,4-dimethoxy-benzamide] | < 1 | – |
| COc1ccc(C(=O)Nc2ccc(-c3nc4ccccc4s3)c(Cl)c2)cc1 [Compound 6, N-(4-Benzothiazol-2-yl-3-chloro-phenyl)-4-methoxy-benzamide] | < 1 | – |
| Cc1ccc2nc(-c3ccc(NC(=O)c4ccc(N(C)C)cc4)cc3)sc2c1 [Compound 7, 4-Dimethylamino-N-[4-(6-methyl-benzothiazol-2-yl)-phenyl]-benzamide] | < 1 | – |
| Cc1ccc(C(=O)O)c(C(=O)Nc2ccc(-c3nc4ccc(C)cc4s3)cc2)c1 [Compound 8, 4-Methyl-N-[4-(6-methyl-benzothiazol-2-yl)-phenyl]-phthalamic acid] | < 1 | – |
| Cc1ccc2nc(-c3ccc(NC(=O)c4cccc(S(=O)(=O)N5CCN(C)CC5)c4)cc3)sc2c1 [Compound 9, N-[4-(6-Methyl-benzothiazol-2-yl)-phenyl]-3-(4-methyl-piperazine-1-sulfonyl)-benzamide] | < 1 | – |
| CN(C)c1ccccc1C(=O)Nc1ccc(-c2nc3ccccc3s2)cc1 [Compound 10, N-(4-Benzothiazol-2-yl-phenyl)-2-dimethylamino-benzamide] | < 1 | – |
| COc1ccccc1C(=O)Nc1ccc(-c2nc3ccccc3s2)c(Cl)c1 [Compound 11, N-(4-Benzothiazol-2-yl-3-chloro-phenyl)-2-methoxy-benzamide] | < 1 | – |
| Cc1cccc(C(=O)Nc2cccc(-c3nc4ccccc4s3)c2)c1 [Compound 12, N-(3-Benzothiazol-2-yl-phenyl)-3-methyl-benzamide] | 1 to 10 | – |
| COc1cccc(OC)c1C(=O)Nc1cccc(-c2nc3ccccc3s2)c1 [Compound 13, N-(3-Benzothiazol-2-yl-phenyl)-2,6-dimethoxy-benzamide] | 1 to 10 | – |
| COc1ccc(C(=O)Nc2ccccc2-c2nc3ccccc3s2)cc1OC [Compound 14, N-(2-Benzothiazol-2-yl-phenyl)-3,4-dimethoxy-benzamide] | 1 to 10 | – |
| COc1ccc(-c2nc3ccccc3s2)cc1NC(=O)c1ccc([N+](=O)[O-])cc1Cl [Compound 15, N-(5-Benzothiazol-2-yl-2-methoxy-phenyl)-2-chloro-4-nitro-benzamide] | 1 to 10 | – |
| COc1c(C)cccc1C(=O)Nc1ccccc1-c1nc2ccccc2s1 [Compound 16, N-(2-Benzothiazol-2-yl-phenyl)-2-methoxy-3-methyl-benzamide] | 1 to 10 | – |
| O=C(Nc1ccc(-c2nc3ccccc3s2)cc1)c1ccc(S(=O)(=O)N2CCCCC2)cc1 [Compound 17, N-(4-Benzothiazol-2-yl-phenyl)-4-(piperidine-1-sulfonyl)-benzamide] | – | 10 to 25 |
| O=C(Nc1cccc(-c2nc3ccccc3s2)c1)c1ccc(S(=O)(=O)N2CCCC2)cc1 [Compound 20, N-(3-Benzothiazol-2-yl-phenyl)-4-(pyrrolidine-1-sulfonyl)-benzamide] | 10 to 25 | – |
| O=C(Nc1ccc(-c2nc3ccccc3s2)cc1)c1ccccc1F [Compound 21, N-(4-Benzothiazol-2-yl-phenyl)-2-fluoro-benzamide] | 10 to 25 | – |
| O=C(Nc1ccc(-c2nc3ccccc3s2)c(O)c1)c1ccc(F)cc1 [Compound 22, N-(4-Benzothiazol-2-yl-3-hydroxy-phenyl)-4-fluoro-benzamide] | 10 to 25 | – |
| Cc1ccccc1C(=O)Nc1ccc(-c2nc3ccccc3s2)c(O)c1 [Compound 23, N-(4-Benzothiazol-2-yl-3-hydroxy-phenyl)-2-methyl-benzamide] | 10 to 25 | – |
| O=C(Nc1ccc(-c2nc3ccccc3s2)c(O)c1)c1cccc(F)c1 [Compound 24, N-(4-Benzothiazol-2-yl-3-hydroxy-phenyl)-3-fluoro-benzamide] | 10 to 25 | – |
| CCOc1ccc(C(=O)Nc2cccc(-c3nc4ccccc4s3)c2C)cc1[N+](=O)O [Compound 25, N-(3-Benzothiazol-2-yl-2-methyl-phenyl)-4-ethoxy-3-nitro-benzamide] | 10 to 25 | – |
| Cc1ccccc1C(=O)Nc1ccc(-c2nc3ccccc3s2)cc1 [Compound 26, N-(4-Benzothiazol-2-yl-phenyl)-2-methyl-benzamide] | 10 to 25 | – |

| Compound | EC50 [1] [µM] | EC50 (Vero, 48 h) [µM] |
| --- | --- | --- |
| COc1ccc(C(=O)Nc2ccc(-c3nc4ccccc4s3)c(O)c2)cc1OC [Compound 27, N-(4-Benzothiazol-2-yl-3-hydroxy-phenyl)-3,4-dimethoxy-benzamide] | 10 to 25 | – |
| COc1ccc(Br)cc1C(=O)Nc1ccc(-c2nc3ccccc3s2)cc1 [Compound 28, N-(4-Benzothiazol-2-yl-phenyl)-5-bromo-2-methoxy-benzamide] | 10 to 25 | – |
| Cc1ccc2nc(-c3ccc(NC(=O)c4ccc(CN5CCOCC5)cc4)cc3)sc2c1 [Compound 29, N-[4-(6-Methyl-benzothiazol-2-yl)-phenyl]-4-morpholin-4-ylmethyl-benzamide] | 10 to 25 | – |
| CC(=O)Oc1cccc(C(=O)Nc2ccc(-c3nc4ccccc4s3)cc2)c1 [Compound 30, Acetic acid 3-(4-benzothiazol-2-yl-phenylcarbamoyl)-phenyl ester] | 10 to 25 | – |
| COc1ccc(Cl)cc1C(=O)Nc1ccc(-c2nc3ccccc3s2)cc1 [Compound 31, N-(4-Benzothiazol-2-yl-phenyl)-5-chloro-2-methoxy-benzamide] | 10 to 25 | – |
| COc1ccc(C(=O)Nc2ccc(Cl)c(-c3nc4ccccc4s3)c2)cc1OC [Compound 32, N-(3-Benzothiazol-2-yl-4-chloro-phenyl)-3,4-dimethoxy-benzamide] | 10 to 25 | – |
| Cc1ccc(C(=O)Nc2cccc(-c3nc4ccccc4s3)c2)c(Cl)c1 [Compound 33, N-(3-Benzothiazol-2-yl-phenyl)-2-chloro-4-methyl-benzamide] | 10 to 25 | – |
| O=C(Nc1ccccc1-c1nc2ccccc2s1)c1ccccc1[N+](=O)[O-] [Compound 34, N-(2-Benzothiazol-2-yl-phenyl)-2-nitro-benzamide] | 10 to 25 | – |
| O=C(Nc1ccc(-c2nc3ccccc3s2)cc1)c1c(F)c(F)c(F)c(F)c1F [Compound 36, N-(4-Benzothiazol-2-yl-phenyl)-2,3,4,5,6-pentafluoro-benzamide] | 10 to 25 | – |
| CCCC(=O)Nc1ccc(C(=O)Nc2ccc(-c3nc4ccc(C)cc4s3)cc2)cc1 [Compound 37, 4-Butyrylamino-N-[4-(6-methyl-benzothiazol-2-yl)-phenyl]-benzamide] | 10 to 25 | – |
| Cc1cc(C)cc(C(=O)Nc2ccc(-c3nc4ccccc4s3)cc2C)c1 [Compound 38, N-(4-Benzothiazol-2-yl-2-methyl-phenyl)-3,5-dimethyl-benzamide] | 10 to 25 | – |
| Cc1cccc(C(=O)Nc2ccc(-c3nc4ccccc4s3)c(Cl)c2)c1 [Compound 39, N-(4-Benzothiazol-2-yl-3-chloro-phenyl)-3-methyl-benzamide] | 10 to 25 | – |
| Cc1ccc2nc(-c3ccc(NC(=O)c4ccc(S(=O)(=O)N5CCc6ccccc65)cc4)cc3)sc2c1 [Compound 41, 4-(2,3-Dihydro-indole-1-sulfonyl)-N-[4-(6-methyl-benzothiazol-2-yl)-phenyl]-benzamide] | > 25 | – |
| Cc1ccc2sc(-c3ccc(NC(=O)c4ccc(Cl)cc4)cc3)nc2c1 [Compound 42, 4-Chloro-N-[4-(5-methyl-benzothiazol-2-yl)-phenyl]-benzamide] | > 25 | – |
| Cc1ccc(-c2nc3ccccc3s2)cc1NC(=O)c1cccc(I)c1 [Compound 43, N-(5-Benzothiazol-2-yl-2-methyl-phenyl)-3-iodo-benzamide] | > 25 | – |
| O=C(Nc1ccc(-c2nc3ccccc3s2)cc1)c1cc(I)ccc1I [Compound 44, N-(4-Benzothiazol-2-yl-phenyl)-2,5-diiodo-benzamide] | > 25 | – |
| O=C(Nc1cccc(-c2nc3ccccc3s2)c1)c1cc(I)ccc1I [Compound 45, N-(3-Benzothiazol-2-yl-phenyl)-2,5-diiodo-benzamide] | > 25 | – |
| CCOC(=O)N1CCN(S(=O)(=O)c2ccc(C(=O)Nc3cccc(-c4nc5ccccc5s4)c3)cc2)CC1 [Compound 46, 4-[4-(3-Benzothiazol-2-yl-phenylcarbamoyl)-benzenesulfonyl]-piperazine-1-carboxylic acid ethyl ester] | > 25 | – |
| CCOC(=O)N1CCN(S(=O)(=O)c2ccc(C(=O)Nc3ccccc3-c3nc4ccccc4s3)cc2)CC1 [Compound 47, 4-[4-(2-Benzothiazol-2-yl-phenylcarbamoyl)-benzenesulfonyl]-piperazine-1-carboxylic acid ethyl ester] | > 25 | – |
| COc1cc(C(=O)Nc2ccc(-c3nc4ccccc4s3)cc2)cc(OC)c1OC [Compound 48, N-(4-Benzothiazol-2-yl-phenyl)-3,4,5-trimethoxy-benzamide] | > 25 | – |
| Cc1ccc2sc(-c3ccc(NC(=O)c4ccccc4Cl)cc3)nc2c1 [Compound 49, 2-Chloro-N-[4-(5-methyl-benzothiazol-2-yl)-phenyl]-benzamide] | – | > 25 |
| Cc1ccc(-c2nc3ccccc3s2)cc1NC(=O)c1ccc(F)cc1 [Compound 50, N-(5-Benzothiazol-2-yl-2-methyl-phenyl)-4-fluoro-benzamide] | > 25 | – |
| COc1cc(C(=O)Nc2cc(-c3nc4ccccc4s3)ccc2C)cc(OC)c1OC [Compound 51, N-(5-Benzothiazol-2-yl-2-methyl-phenyl)-3,4,5-trimethoxy-benzamide] | > 25 | – |
